Laboratory results: the supplement of paper PMC10307832

Legend:
Experiment in all cases: relative viability (nuclei count vs DMSO), 5 days (fraction); higher = more cells survive
[1] = compound: C1/C(=C\C2=CC=CS2)/C(=O)/C(=C/C3=CC=CS3)/C1 + CS(=O)(=O)CCNCc1ccc(-c2ccc3ncnc(Nc4ccc(OCc5cccc(F)c5)c(Cl)c4)c3c2)o1 [Lapatinib] (partner 2 µM)
Summary of the method: (§1)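 Five library-drug doses in √10 steps were combined with a fixed anchor-drug dose, or a single drug was given alone, by pin tool to lung cancer cell lines in 1536-well plates the day after seeding. Nuclei were stained and counted after 5 days. Relative viability is the nuclei count in treated wells over that in vehicle wells, taken as the median of duplicate plates.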

[2] = compound: C1/C(=C\C2=CC=CS2)/C(=O)/C(=C/C3=CC=CS3)/C1 + CC(=O)Nc1cccc(-n2c(=O)n(C3CC3)c(=O)c3c(Nc4ccc(I)cc4F)n(C)c(=O)c(C)c32)c1 [Trametinib] (partner 0.02 µM)
Summary of the method: as §1

[3] = compound: C1/C(=C\C2=CC=CS2)/C(=O)/C(=C/C3=CC=CS3)/C1 + O=C(c1cc(Cc2n[nH]c(=O)c3ccccc23)ccc1F)N1CCN(C(=O)C2CC2)CC1 [Olaparib] (partner 8 µM)
Summary of the method: as §1

TPCA-1 + Crizotinib = compound: C1=CC(=CC=C1C2=CC(=C(S2)NC(=O)N)C(=O)N)F [TPCA-1] + C[C@@H](Oc1cc(-c2cnn(C3CCNCC3)c2)cnc1N)c1c(Cl)ccc(F)c1Cl [Crizotinib] (partner 1 µM)
Summary of the method: as §1

Cell Line: UMC-11
- relative viability ([1]; first compound 0.2 µM): 0.88
- relative viability ([1]; first compound 0.6325 µM): 0.98
- relative viability ([1]; first compound 2 µM): 1.19
- relative viability ([1]; first compound 6.325 µM): 0.628
- relative viability ([1]; first compound 20 µM): 1.1
- relative viability ([2]; first compound 0.2 µM): 0.69
- relative viability ([2]; first compound 0.6325 µM): 0.737
- relative viability ([2]; first compound 2 µM): 0.675
- relative viability ([2]; first compound 6.325 µM): 0.671
- relative viability ([2]; first compound 20 µM): 0.715
- relative viability ([3]; first compound 0.2 µM): 0.462
- relative viability ([3]; first compound 0.6325 µM): 0.347
- relative viability ([3]; first compound 2 µM): 0.405
- relative viability ([3]; first compound 6.325 µM): 0.475
- relative viability ([3]; first compound 20 µM): 0.391
- relative viability (TPCA-1 + Crizotinib; first compound 0.04 µM): 0.579
- relative viability (TPCA-1 + Crizotinib; first compound 0.1265 µM): 0.586
- relative viability (TPCA-1 + Crizotinib; first compound 0.4 µM): 0.578
- relative viability (TPCA-1 + Crizotinib; first compound 1.265 µM): 0.573
- relative viability (TPCA-1 + Crizotinib; first compound 4 µM): 0.274
